{
  "source": "patent US4668705A",
  "about": "“Sebosuppressive preparations containing alkoxyaryl alkanols” (Henkel Kommanditgesellschaft auf Aktien, priority 1983, dated 1987)",
  "key": {"seborrhea of the scalp": {"test_system": "seborrhea of the scalp", "conditions": "prior art, cited from earlier work; for antiseborrheic effect of known additives: additives to cosmetic preparations"}, "[1]": {"test_system": "brown skin surface lipid of the rats", "experiment": "Antiseborrheic effect in animal test: browning of the shaved back of rats (skin surface lipid), visual assessment under double blind conditions", "type": "in vivo, male Wistar rats", "parameters": "key to Evaluation method 2 (points difference between righthand and lefthand side) / Evaluation method 3 (difference in intensity of brown shades vs untreated control animals): ++: very large (≥99.9% probability); +: significant (≥95% probability); 0: minimal (95% probability)", "conditions": "for reduction of sebum (threshold statement in text): at the concentration tested in the Table", "description": "The antiseborrheic effect was closely studied using the animal tests described in the following: The test animals were male Wistar rats having a body weight of 220 to 230 g at the beginning of the tests. The degree of browning on the shaved back of the rats was visually assessed. Browning is produced by the brown skin surface lipid of the rats. This test is based on the observation that young male and female rats washed with surfactant solution or with a lipid solvent and also male rats systematically treated with oestrogen only have the normal light, pink-colored skin after shaving. At the same time, only comparatively very small quantities of lipids can be extracted from the shaved hairs. In order to assess effectiveness, the test substances in solution in alcohol were each brushed onto half the back of 6 rats. The other half was only treated with the solvent minus active substances. Over the test period of 14 days, the test substances were applied once daily for a total of 9 days. A group of 6 rats which remained completely untreated was used for further control. At the end of the test, the animals were shaved on their back and sides and were visually assessed independently by an examination panel of 6 people under double blind conditions. The first criterion evaluated was whether the majority of examiners correctly recognized the treated side, differentiation being carried out as follows: The second criterion evaluated was the difference between the righthand side and the lefthand side, each examiner having to award 1 point per animal on the following basis: darker side--1 point lighter side--0 point and both sides the same--0.5 point Significant differences between the untreated and treated sides in the second method of evaluation indicate the local effectiveness of a substance. The third criterion evaluated was the difference in intensity between the shades of brown using the following scale: 3 points--dark brown 2 points--medium brown 1 point--light brown 0 points--no browning In the third method of evaluation, total point differences are compared between the untreated control animals and the treated and untreated sides of the test animals, significant differences between the control animals and the treated side of the test animals again indicating the effectiveness of a substance. There is generally also a distinct difference between the untreated and treated sides of the same test animals. However, this difference is not always as clear as that between the control animals and the treated sides, for which there may be various reasons, such as mechanical transfer of substance from one side to the other or solvent influence. The following scheme was used for differentiating the effects according to evaluation methods 2 and 3: The sebum reduction is calculated from the points difference by working out the quotient between the points difference ΔP and the number of points for the control group Pk, and expressing the value obtained in percent. Sebum reduction=(ΔP/Pk ·100 [%] […]"}, "[2]": {"conditions": "Conc. 0.5%, topical, once daily, 9 applications in 14 days"}, "[3]": {"conditions": "Rattus norvegicus, 336 h, Conc. 0.5%, topical, once daily, 9 applications in 14 days, ΔP/Pk × 100, read-out: Sebum reduction"}, "[4]": {"conditions": "Conc. 0.2%, topical, once daily, 9 applications in 14 days"}, "[5]": {"conditions": "Rattus norvegicus, 336 h, Conc. 0.2%, topical, once daily, 9 applications in 14 days, ΔP/Pk × 100, read-out: Sebum reduction"}, "[6]": {"conditions": "Conc. 1.0%, topical, once daily, 9 applications in 14 days"}, "[7]": {"conditions": "Rattus norvegicus, 336 h, Conc. 1.0%, topical, once daily, 9 applications in 14 days, ΔP/Pk × 100, read-out: Sebum reduction"}, "[8]": {"conditions": "Conc. 0.1%, topical, once daily, 9 applications in 14 days"}},
  "data": [
    {"molecule": "3,7,11-trimethyl-2,6,10-dodecatrien-1-ol ethyl ether and/or acetate", "values": [
      {"measurement": "antiseborrheic effect of known additives", "setting": "seborrhea of the scalp", "value": "only a very weak antiseborrheic effect"}
    ]},
    {"molecule": "CCCCCCCCCCCCCCOc1ccc(CO)cc1", "note": "[A, 4-tetradecyloxybenzyl alcohol]", "values": [
      {"measurement": "Evaluation method 1 (percentage of examiners noticing an effect, treated side recognized)", "setting": "[1]; [2]", "value": "++ (100%)"},
      {"measurement": "Evaluation method 2 (points difference between righthand and lefthand side)", "setting": "[1]; [2]", "value": "++ (very large (≥99.9% probability))"},
      {"measurement": "Evaluation method 3 (difference in intensity of brown shades vs untreated control animals)", "setting": "[1]; [2]", "value": "++ (very large (≥99.9% probability))"},
      {"measurement": "inhibition in vivo at 0.5 %", "setting": "[1]; [3]", "value": 97, "unit": "%"}
    ]},
    {"molecule": "CCCCCCCCCCOc1ccc(CO)cc1", "note": "[B, 4-decyloxybenzyl alcohol]", "values": [
      {"measurement": "Evaluation method 1 (percentage of examiners noticing an effect, treated side recognized)", "setting": "[1]; [4]", "value": "++ (100%)"},
      {"measurement": "Evaluation method 2 (points difference between righthand and lefthand side)", "setting": "[1]; [4]", "value": "++ (very large (≥99.9% probability))"},
      {"measurement": "Evaluation method 3 (difference in intensity of brown shades vs untreated control animals)", "setting": "[1]; [4]", "value": "++ (very large (≥99.9% probability))"},
      {"measurement": "inhibition in vivo at 0.2 %", "setting": "[1]; [5]", "value": 95, "unit": "%"}
    ]},
    {"molecule": "OCc1ccccc1", "note": "[Benzyl alcohol, reference compound]", "values": [
      {"measurement": "Evaluation method 1 (percentage of examiners noticing an effect, treated side recognized)", "setting": "[1]; [6]", "value": "0 (≤50%)"},
      {"measurement": "Evaluation method 2 (points difference between righthand and lefthand side)", "setting": "[1]; [6]", "value": 0},
      {"measurement": "Evaluation method 3 (difference in intensity of brown shades vs untreated control animals)", "setting": "[1]; [6]", "value": 0},
      {"measurement": "inhibition in vivo at 1 %", "setting": "[1]; [7]", "value": 0, "unit": "%"}
    ]},
    {"molecule": "CCCCCCCCCCOc1ccc(CCO)cc1", "note": "[C, 2-(4-decyloxyphenyl)-ethanol]", "values": [
      {"measurement": "Evaluation method 1 (percentage of examiners noticing an effect, treated side recognized)", "setting": "[1]; [6]", "value": "++ (100%)"},
      {"measurement": "Evaluation method 2 (points difference between righthand and lefthand side)", "setting": "[1]; [6]", "value": "++ (very large (≥99.9% probability))"},
      {"measurement": "Evaluation method 3 (difference in intensity of brown shades vs untreated control animals)", "setting": "[1]; [6]", "value": "++ (very large (≥99.9% probability))"},
      {"measurement": "inhibition in vivo at 1 %", "setting": "[1]; [7]", "value": 56, "unit": "%"},
      {"measurement": "reduction of sebum (threshold statement in text)", "setting": "[1]", "value": "at least 50%"}
    ]},
    {"molecule": "CCCCCCCCCCCCOc1ccc(CO)cc1", "note": "[D, 4-dodecyloxybenzyl alcohol]", "values": [
      {"measurement": "Evaluation method 1 (percentage of examiners noticing an effect, treated side recognized)", "setting": "[1]; [8]", "value": "++ (100%)"},
      {"measurement": "Evaluation method 2 (points difference between righthand and lefthand side)", "setting": "[1]; [8]", "value": "++ (very large (≥99.9% probability))"},
      {"measurement": "Evaluation method 3 (difference in intensity of brown shades vs untreated control animals)", "setting": "[1]; [8]", "value": "++ (very large (≥99.9% probability))"},
      {"measurement": "inhibition in vivo at 0.1 %", "setting": "[1]; Rattus norvegicus, 336 h, Conc. 0.1%, topical, once daily, 9 applications in 14 days, ΔP/Pk × 100, read-out: Sebum reduction", "value": 88, "unit": "%"}
    ]},
    {"molecule": "CCCCCCOc1ccc(CO)cc1", "note": "[E, 4-hexyloxybenzyl alcohol]", "values": [
      {"measurement": "Evaluation method 1 (percentage of examiners noticing an effect, treated side recognized)", "setting": "[1]; [4]", "value": "++ (100%)"},
      {"measurement": "Evaluation method 2 (points difference between righthand and lefthand side)", "setting": "[1]; [4]", "value": "++ (very large (≥99.9% probability))"},
      {"measurement": "Evaluation method 3 (difference in intensity of brown shades vs untreated control animals)", "setting": "[1]; [4]", "value": "++ (very large (≥99.9% probability))"},
      {"measurement": "inhibition in vivo at 0.2 %", "setting": "[1]; [5]", "value": 92, "unit": "%"}
    ]},
    {"molecule": "CCCCCCCCOc1ccc(CO)cc1", "note": "[F, 4-octyloxybenzyl alcohol]", "values": [
      {"measurement": "Evaluation method 1 (percentage of examiners noticing an effect, treated side recognized)", "setting": "[1]; [4]", "value": "++ (100%)"},
      {"measurement": "Evaluation method 2 (points difference between righthand and lefthand side)", "setting": "[1]; [4]", "value": "++ (very large (≥99.9% probability))"},
      {"measurement": "Evaluation method 3 (difference in intensity of brown shades vs untreated control animals)", "setting": "[1]; [4]", "value": "++ (very large (≥99.9% probability))"},
      {"measurement": "inhibition in vivo at 0.2 %", "setting": "[1]; [5]", "value": 95, "unit": "%"}
    ]},
    {"molecule": "CCCCCCCCCCOc1ccccc1CO", "note": "[G, 2-decyloxybenzyl alcohol]", "values": [
      {"measurement": "Evaluation method 1 (percentage of examiners noticing an effect, treated side recognized)", "setting": "[1]; [2]", "value": "++ (100%)"},
      {"measurement": "Evaluation method 2 (points difference between righthand and lefthand side)", "setting": "[1]; [2]", "value": "++ (very large (≥99.9% probability))"},
      {"measurement": "Evaluation method 3 (difference in intensity of brown shades vs untreated control animals)", "setting": "[1]; [2]", "value": "++ (very large (≥99.9% probability))"},
      {"measurement": "inhibition in vivo at 0.5 %", "setting": "[1]; [3]", "value": 20, "unit": "%"}
    ]},
    {"molecule": "CCCCCCCCCCCCOc1cccc(CO)c1", "note": "[H, 3-dodecyloxybenzyl alcohol]", "values": [
      {"measurement": "Evaluation method 1 (percentage of examiners noticing an effect, treated side recognized)", "setting": "[1]; [2]", "value": "++ (100%)"},
      {"measurement": "Evaluation method 2 (points difference between righthand and lefthand side)", "setting": "[1]; [2]", "value": "++ (very large (≥99.9% probability))"},
      {"measurement": "Evaluation method 3 (difference in intensity of brown shades vs untreated control animals)", "setting": "[1]; [2]", "value": "++ (very large (≥99.9% probability))"},
      {"measurement": "inhibition in vivo at 0.5 %", "setting": "[1]; [3]", "value": 69, "unit": "%"},
      {"measurement": "reduction of sebum (threshold statement in text)", "setting": "[1]", "value": "at least 50%"}
    ]},
    {"molecule": "CCCCCCCCCCCCCCOc1cccc(CO)c1", "note": "[I, 3-tetradecyloxybenzyl alcohol]", "values": [
      {"measurement": "Evaluation method 1 (percentage of examiners noticing an effect, treated side recognized)", "setting": "[1]; [2]", "value": "++ (100%)"},
      {"measurement": "Evaluation method 2 (points difference between righthand and lefthand side)", "setting": "[1]; [2]", "value": "++ (very large (≥99.9% probability))"},
      {"measurement": "Evaluation method 3 (difference in intensity of brown shades vs untreated control animals)", "setting": "[1]; [2]", "value": "++ (very large (≥99.9% probability))"},
      {"measurement": "inhibition in vivo at 0.5 %", "setting": "[1]; [3]", "value": 22, "unit": "%"}
    ]},
    {"molecule": "CCCCCCCCCCOc1cccc(CO)c1", "note": "[K, 3-decyloxybenzyl alcohol]", "values": [
      {"measurement": "Evaluation method 1 (percentage of examiners noticing an effect, treated side recognized)", "setting": "[1]; [2]", "value": "++ (100%)"},
      {"measurement": "Evaluation method 2 (points difference between righthand and lefthand side)", "setting": "[1]; [2]", "value": "++ (very large (≥99.9% probability))"},
      {"measurement": "Evaluation method 3 (difference in intensity of brown shades vs untreated control animals)", "setting": "[1]; [2]", "value": "++ (very large (≥99.9% probability))"},
      {"measurement": "inhibition in vivo at 0.5 %", "setting": "[1]; [3]", "value": 53, "unit": "%"},
      {"measurement": "reduction of sebum (threshold statement in text)", "setting": "[1]", "value": "at least 50%"}
    ]},
    {"molecule": "S1SSSSSSS1", "note": "[sulfur]", "values": [
      {"measurement": "antiseborrheic effect of known additives", "setting": "seborrhea of the scalp", "value": "without giving really satisfactory results in regard to efficacy"},
      {"measurement": "side effects of known additives", "setting": "seborrhea of the scalp; after prolonged use", "value": "frequently produce side effects after prolonged use"}
    ]},
    {"molecule": "mercury", "values": [
      {"measurement": "antiseborrheic effect of known additives", "setting": "seborrhea of the scalp", "value": "without giving really satisfactory results in regard to efficacy"}
    ]}
  ]
}
